The conditions of data set [1]: after intravenous administration; cited from earlier work.
The nature of data set [2]: Uptake in end bone and midbone of femur in anesthetized rats, NaI scintillation counting (Table II). It is filed as in vivo. To be noted: vein, 120 minutes; for % Dose/gram End Bone: femur ends; for % Dose/gram Midbone: femur mid-section; for End-/Mid-bone: femur, ratio of end bone to midbone. On the procedure:
Fifty μl of the complex prepared in Example 1 was injected into the vein of anesthetized laboratory rats. After 120 minutes the animals were killed and the femurs removed. The ends of the bones were cut away from the mid-section and each section was weighed and analyzed separately. The amount of activity in the bone sections was quantitated using NaI scintillation counting. The results were compared to those of complexes prepared from commercial diphosphonate kits (Table II).

The source of these data is US4515767A, “Radioactive metals complexed with phosphonate derivatives of dicyclopentadienebis(methylamine)” (The Dow Chemical Company, priority 1983, dated 1985).

In the case of `[85Sr]` [Sr-85, Strontium-85], the “accumulation by bone (in words)” value in data set [1] is given as “rapidly accumulated by bone”.
For `O=P(O)(O)OP(=O)(O)O` [PYP, pyrophosphate], in data set [2], the “% Dose/gram End Bone” value came out at 3.50 % Dose/gram, the “% Dose/gram Midbone” value is 1.78 % Dose/gram and the End-/Mid-bone turned out to be 1.97.
With methylenediphosphonate [MDP], in data set [2], the “% Dose/gram End Bone” value was found to be 3.95 % Dose/gram, the “% Dose/gram Midbone” value is given as 1.90 % Dose/gram and the End-/Mid-bone is 2.08.
On to `CC(O)(P(=O)(O)O)P(=O)(O)O` [EHDP, hydroxyethanediphosphosphonate], for which, in data set [2], the “% Dose/gram End Bone” value is reported as 3.40 % Dose/gram, the “% Dose/gram Midbone” value is recorded as 1.46 % Dose/gram and the End-/Mid-bone came to 2.33.
